From patent US20140322139A1, “STABILIZATION OF X-RAY DIAGNOSTIC COMPOSITION” (GE HEALTHCARE AS, priority 2011, published 2014)

Experiments:
[1] = Physical stability study: visual inspection for crystallisation during storage; type: physicochemical; conditions: conclusion from the storage study of Ioforminol/Visipaque mixtures
Description: Formulated Ioforminol (320 mg I/ml) and Visipaque (Iodixanol 320 mg I/ml) were filled on 100 ml glass vials in mixtures with ratios according to Table 1. The filling was performed by using a Flexicon PF5 peristaltic pump. The vials were sealed by closures comprising stoppers and overlying caps. The vials were split into two populations, one that was subjected to heat steam sterilisation at 121° C. (autoclaving) for 20 minutes and one that was used without further treatment.
The autoclaved and non-autoclaved samples of different mixtures were placed on storage at 25, 40 and 60° C. respectively. The samples were subjected to visual inspection weekly for the first 5 weeks before inspection was carried out monthly.

[2] = Dissolution temperature of ioforminol in water for injection; type: physicochemical; conditions: water for injection as the solvent, concentration range 270-380 mg I/ml

SMILES | inhibition of primary nucleation [1] | dissolution temperature [2]
CC(=O)N(CC(O)CN(C(C)=O)c1c(I)c(C(=O)NCC(O)CO)c(I)c(C(=O)NCC(O)CO)c1I)c1c(I)c(C(=O)NCC(O)CO)c(I)c(C(=O)NCC(O)CO)c1I (centres unmarked) [Iodixanol] | potent inhibitor of primary nucleation | 
O=CN(CC(O)CN(C=O)c1c(I)c(C(=O)NCC(O)CO)c(I)c(C(=O)NCC(O)CO)c1I)c1c(I)c(C(=O)NCC(O)CO)c(I)c(C(=O)NCC(O)CO)c1I (centres unmarked) [Ioforminol, 5-[formyl-[3-[formyl-[3,5-bis(2,3-dihydroxypropylcarbamoyl)-2,4,6-triiodophenyl]amino]-2-hydroxypropyl]amino]-N,N′-bis(2,3-dihydroxypropyl)-2,4,6-triiodobenzene-1,3-dicarboxamide] |  | ~110 °C
